Where a name gives a salt, the structure may show the parent alone.
Tests used:
[1] = Effect of Tween-20 and Tween-80 on terbinafine HCl solubility in water and PBS; type: physicochemical; conditions: thermodynamic from solid, n = 3
Description: The influence of Tween-20 and Tween-80 on terbinafine HCl solubility in water and PBS was determined. The drug was added to each of the solvents until visual saturation was obtained, then left at controlled temperature (19° C.) or 24 hours. The saturated solutions were filtered and drug solubility in the filtrate was determined by UV spectrophotometer.

[2] = test system: T. rubrum; test: Antifungal activity of terbinafine loaded nails, agar diffusion assay; type: cell-based
Description: The nail plates loaded with the formulation containing 4% terbinafine HCl, 21% ethanol (95%), 5% Tween-80, 40% glycerin, 0.3% HEC, 0.2% benzoic acid, 0.01% BHT, and 0.01% disodium EDTA (Formulation TPI-DF-507), by passive diffusion (15 or 60 min) or iontophoresis (Coulombic doses of 0.75, 3, 6, and 12 mA min corresponding to 0.25 mA/cm^2 for 15 min, 0.25 mA/cm^2 for 60 min, 0.5 mA/cm^2 for 60 min, and 1 mA/cm^2 for 60 min, respectively), were tested for antifungal activity. The inoculum, T. rubrum, (ATCC10218) was prepared in sterile saline from 7-10 days old cultures on PDA slants at 30° C. Terbinafine HCl loaded nail pieces (2˜3 mm squares) were placed on the Sabouraud Dextrose Agar plates (Oxoid, Napean, Ontario, Canada) inoculated with T. rubrum. The diameter (mm) of the zones of inhibition were measured using a dial caliper after 4 days of incubation at 30° C. and were compared with the standards. The zone of inhibition for the standards (known drug concentrations: 0.1, 0.2, 0.4, 0.5, 0.6, 0.8, 1.0. 2.0 and 3.0 μg of terbinafine HCl) were determined similarly by loading the drug on 6 mm paper blank disks (Becton Dickinson, Sparks, Md.). Subsequently, the terbinafine HCl standard curve generated was used to calculate the drug dosage out of the nail. […] Based on the passaging study, duration of release of active terbinafine HCl was determined.

[3] = Permeation through and loading in human nail, Franz diffusion cell; type: in vitro ADME
Description: Permeation experiments were conducted using human nails to further validate iontophoretic delivery. In these experiments intact full thickness whole cadaver finger nail plates (˜0.5-0.7 mm thickness) were trimmed to appropriate disks and used. Prehydrated (in saline for 60 min) nail disks were sandwiched between the donor and receptor compartments of Franz diffusion cell (FDC) using a nail adaptor to conform to the curvature of the nail. Terbinafine hydrochloride (10 mg/mL) in water and Tween80 was used in the donor compartment, and acidified water used in the receptor. Current density of 0.5 mA/cm^2 was applied for 1 hr after which the receptor levels were measured for permeation of terbinafine hydrochloride through the nail using similar methods as described in Example 3B. Additionally, nail disks were analyzed (after 1 hr of iontophoresis or passive delivery) for drug in the nail using similar extraction methods as described as follows. […]
Permeation experiments were conducted using human nails as described in Example 4 but the effect of current duration was investigated. Current density of 0.5 mA/cm^2 was applied for either 15, 30, 45, or 60 minutes and the receptor levels analyzed for amount of terbinafine hydrochloride that permeated through the nail (μg/cm^2) immediately afterwards and compared to passively delivered nails.

Work on `CN(C/C=C/C#CC(C)(C)C)Cc1cccc2ccccc12` [terbinafine HCl, (E)-N-(6,6-dimethyl-2-hepten-4-ynyl)-N-methyl-1-naphthylmethamine hydrochloride] yielded a solubility at 24 h ([1]; aqueous buffer, PBS, 19° C.) of 1320 µg/mL, a solubility at 24 h ([1]; aqueous with cosolvent or surfactant or cyclodextrin, PBS and 5% Tween-20, 19° C.) of 5220 ± 20 µg/mL and a solubility at 24 h ([1]; aqueous with cosolvent or surfactant or cyclodextrin, PBS and 5% Tween-80, 19° C.) of 6530 ± 60 µg/mL. It also gave a solubility at 24 h ([1]; aqueous with cosolvent or surfactant or cyclodextrin, Water and 5% Tween-20, 19° C.) of 10600 ± 660 µg/mL, a solubility at 24 h ([1]; aqueous with cosolvent or surfactant or cyclodextrin, Water and 5% Tween-80, 19° C.) of 11500 ± 640 µg/mL and a solubility at 24 h ([1]; Distilled water, 19° C.) of 6370 ± 310 µg/mL. The “zones of inhibition, iontophoresis loaded nails versus passive delivery controls” value ([2]; Formulation TPI-DF-507, 4 days at 30° C.) was “Significantly larger zones of inhibition”, the “Duration of terbinafine HCl release from nail samples” value ([2]; serial passaging to freshly inoculated plates, 0.5 mA/cm^2 for 60 min) was “at least 36 days” and the “permeation through the nail and loading in the nail, iontophoresis versus passive” value ([3]; 10 mg/mL in water and Tween80, 0.5 mA/cm^2 for 1 hr) was “increases permeation through the nail and loading in the nail compared to passive delivery”. For the same molecule, the “iontophoretic permeation through the nail versus passive” value ([3]; 0.5 mA/cm^2 for 15, 30, 45, or 60 minutes) was “greater than passively delivered drug for all current durations tested”.

Reference: patent US20080261986A1, “PHARMACEUTICAL FORMULATIONS FOR IONTOPHORETIC DELIVERY OF AN ANTI-FUNGAL DRUG” (priority 2007, published 2008)
